Test results taken from ChEMBL document CHEMBL4804281, “STK4 inhibitors for treatment of hematologic malignancies” (2020).
Activity calls are given as the source filed them. The calls are words filed in the database; no cut-off is given here.

Tests used:
[1] = molecular target: Casein kinase I isoform delta (Homo sapiens) (UniProt P48730); assay: Inhibition of CK1d in human NCI-H929 cells at 10 uM by mass spectroscopic analysis relative to control; assay type: cell-based
[2] = molecular target: Serine/threonine-protein kinase 24 (Homo sapiens) (UniProt Q9Y6E0); assay: Inhibition of MST3 in human NCI-H929 cells at 10 uM by mass spectroscopic analysis relative to control; assay type: cell-based
[3] = molecular target: Interleukin-1 receptor-associated kinase 1 (Homo sapiens) (UniProt P51617); assay: Inhibition of IRAK1 in human NCI-H929 cells at 10 uM by mass spectroscopic analysis relative to control; assay type: cell-based
Interleukin-1 receptor-associated kinase 1 (Homo sapiens), sequence (P51617 whole entry, looked up, canonical isoform): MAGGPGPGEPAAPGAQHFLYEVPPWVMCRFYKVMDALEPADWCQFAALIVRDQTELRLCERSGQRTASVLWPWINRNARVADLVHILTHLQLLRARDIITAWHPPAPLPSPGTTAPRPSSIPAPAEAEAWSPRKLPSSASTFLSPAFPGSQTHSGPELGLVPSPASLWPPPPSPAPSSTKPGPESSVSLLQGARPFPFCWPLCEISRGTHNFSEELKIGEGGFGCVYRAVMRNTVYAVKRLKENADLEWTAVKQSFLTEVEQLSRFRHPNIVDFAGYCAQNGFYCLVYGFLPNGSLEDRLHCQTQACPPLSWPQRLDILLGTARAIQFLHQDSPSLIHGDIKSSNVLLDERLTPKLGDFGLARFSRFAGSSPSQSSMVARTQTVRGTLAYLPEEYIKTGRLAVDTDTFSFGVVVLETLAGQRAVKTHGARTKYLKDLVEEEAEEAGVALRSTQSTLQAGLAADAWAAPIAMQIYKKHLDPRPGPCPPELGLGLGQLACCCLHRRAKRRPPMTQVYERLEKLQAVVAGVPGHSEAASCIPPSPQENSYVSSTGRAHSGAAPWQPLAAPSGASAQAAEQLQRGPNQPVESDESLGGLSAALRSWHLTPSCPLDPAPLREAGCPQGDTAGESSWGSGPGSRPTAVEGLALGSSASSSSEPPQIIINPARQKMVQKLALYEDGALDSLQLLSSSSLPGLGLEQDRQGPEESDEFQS

[4] = molecular target: Casein kinase I isoform epsilon (Homo sapiens) (UniProt P49674); assay: Inhibition of CK1e in human NCI-H929 cells at 10 uM by mass spectroscopic analysis relative to control; assay type: cell-based
[5] = molecular target: STE20-like serine/threonine-protein kinase (Homo sapiens) (UniProt Q9H2G2); assay: Inhibition of SLK in human NCI-H929 cells at 10 uM by mass spectroscopic analysis relative to control; assay type: cell-based
[6] = molecular target: Calcium/calmodulin-dependent protein kinase kinase 2 (Homo sapiens) (UniProt Q96RR4); assay: Inhibition of CAMKK2 in human NCI-H929 cells at 10 uM by mass spectroscopic analysis relative to control; assay type: cell-based
Calcium/calmodulin-dependent protein kinase kinase 2 (Homo sapiens), sequence (Q96RR4 2-588 limits assumed): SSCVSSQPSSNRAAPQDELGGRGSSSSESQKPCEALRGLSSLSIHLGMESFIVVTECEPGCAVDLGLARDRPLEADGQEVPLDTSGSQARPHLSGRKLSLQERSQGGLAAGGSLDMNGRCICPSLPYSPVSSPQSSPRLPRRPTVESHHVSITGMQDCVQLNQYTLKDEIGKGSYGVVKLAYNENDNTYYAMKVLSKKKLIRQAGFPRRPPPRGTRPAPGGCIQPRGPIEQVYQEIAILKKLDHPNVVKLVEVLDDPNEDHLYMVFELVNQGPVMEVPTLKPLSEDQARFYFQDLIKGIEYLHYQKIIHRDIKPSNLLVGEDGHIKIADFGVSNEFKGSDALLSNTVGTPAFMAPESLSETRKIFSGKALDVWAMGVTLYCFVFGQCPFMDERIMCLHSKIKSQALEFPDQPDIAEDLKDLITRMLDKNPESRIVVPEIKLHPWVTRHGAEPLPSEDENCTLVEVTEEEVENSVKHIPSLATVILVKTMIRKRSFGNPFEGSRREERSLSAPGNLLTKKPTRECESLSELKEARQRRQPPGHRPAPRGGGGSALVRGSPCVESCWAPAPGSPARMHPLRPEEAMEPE

[7] = molecular target: Rho-associated protein kinase 1 (Homo sapiens) (UniProt Q13464); assay: Inhibition of ROCK1 in human NCI-H929 cells at 10 uM by mass spectroscopic analysis relative to control; assay type: cell-based
Rho-associated protein kinase 1 (Homo sapiens), sequence (Q13464 2-1354 limits assumed): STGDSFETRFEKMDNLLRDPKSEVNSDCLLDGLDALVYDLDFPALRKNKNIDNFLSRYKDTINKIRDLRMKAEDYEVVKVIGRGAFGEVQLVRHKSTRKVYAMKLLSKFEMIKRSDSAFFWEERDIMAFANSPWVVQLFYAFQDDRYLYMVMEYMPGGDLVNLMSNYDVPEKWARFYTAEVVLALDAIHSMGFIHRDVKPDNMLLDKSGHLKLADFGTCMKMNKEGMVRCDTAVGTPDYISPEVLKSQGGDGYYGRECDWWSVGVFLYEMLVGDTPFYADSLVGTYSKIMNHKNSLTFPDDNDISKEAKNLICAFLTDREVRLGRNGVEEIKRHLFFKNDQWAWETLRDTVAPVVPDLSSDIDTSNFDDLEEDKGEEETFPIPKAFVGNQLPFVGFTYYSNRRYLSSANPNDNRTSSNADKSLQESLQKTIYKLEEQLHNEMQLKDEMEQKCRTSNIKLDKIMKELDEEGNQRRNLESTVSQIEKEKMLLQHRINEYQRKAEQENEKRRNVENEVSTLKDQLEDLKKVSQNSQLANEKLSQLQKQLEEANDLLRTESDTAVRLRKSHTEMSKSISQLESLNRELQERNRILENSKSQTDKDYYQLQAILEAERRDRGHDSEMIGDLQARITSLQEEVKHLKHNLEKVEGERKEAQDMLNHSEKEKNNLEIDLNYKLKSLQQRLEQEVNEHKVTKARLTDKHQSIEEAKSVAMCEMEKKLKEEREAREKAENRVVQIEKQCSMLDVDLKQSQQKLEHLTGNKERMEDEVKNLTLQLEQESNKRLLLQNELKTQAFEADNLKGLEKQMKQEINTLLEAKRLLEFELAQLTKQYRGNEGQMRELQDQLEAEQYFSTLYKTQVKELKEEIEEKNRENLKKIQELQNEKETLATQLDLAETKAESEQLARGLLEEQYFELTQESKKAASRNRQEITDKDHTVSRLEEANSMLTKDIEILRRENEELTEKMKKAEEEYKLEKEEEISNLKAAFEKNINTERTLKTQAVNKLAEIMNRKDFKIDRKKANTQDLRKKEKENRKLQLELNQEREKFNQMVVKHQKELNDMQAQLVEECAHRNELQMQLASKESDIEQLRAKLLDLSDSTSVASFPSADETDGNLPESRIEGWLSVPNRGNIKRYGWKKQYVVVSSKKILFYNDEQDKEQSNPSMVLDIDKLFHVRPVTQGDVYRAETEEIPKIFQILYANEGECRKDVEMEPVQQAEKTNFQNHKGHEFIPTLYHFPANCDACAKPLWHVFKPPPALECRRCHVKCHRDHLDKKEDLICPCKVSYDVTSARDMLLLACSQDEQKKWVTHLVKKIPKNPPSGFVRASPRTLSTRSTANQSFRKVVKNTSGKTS

[8] = molecular target: Misshapen-like kinase 1 (Homo sapiens) (UniProt Q8N4C8); assay: Inhibition of MINK in human NCI-H929 cells at 10 uM by mass spectroscopic analysis relative to control; assay type: cell-based
Misshapen-like kinase 1 (Homo sapiens), sequence (Q8N4C8 whole entry, looked up): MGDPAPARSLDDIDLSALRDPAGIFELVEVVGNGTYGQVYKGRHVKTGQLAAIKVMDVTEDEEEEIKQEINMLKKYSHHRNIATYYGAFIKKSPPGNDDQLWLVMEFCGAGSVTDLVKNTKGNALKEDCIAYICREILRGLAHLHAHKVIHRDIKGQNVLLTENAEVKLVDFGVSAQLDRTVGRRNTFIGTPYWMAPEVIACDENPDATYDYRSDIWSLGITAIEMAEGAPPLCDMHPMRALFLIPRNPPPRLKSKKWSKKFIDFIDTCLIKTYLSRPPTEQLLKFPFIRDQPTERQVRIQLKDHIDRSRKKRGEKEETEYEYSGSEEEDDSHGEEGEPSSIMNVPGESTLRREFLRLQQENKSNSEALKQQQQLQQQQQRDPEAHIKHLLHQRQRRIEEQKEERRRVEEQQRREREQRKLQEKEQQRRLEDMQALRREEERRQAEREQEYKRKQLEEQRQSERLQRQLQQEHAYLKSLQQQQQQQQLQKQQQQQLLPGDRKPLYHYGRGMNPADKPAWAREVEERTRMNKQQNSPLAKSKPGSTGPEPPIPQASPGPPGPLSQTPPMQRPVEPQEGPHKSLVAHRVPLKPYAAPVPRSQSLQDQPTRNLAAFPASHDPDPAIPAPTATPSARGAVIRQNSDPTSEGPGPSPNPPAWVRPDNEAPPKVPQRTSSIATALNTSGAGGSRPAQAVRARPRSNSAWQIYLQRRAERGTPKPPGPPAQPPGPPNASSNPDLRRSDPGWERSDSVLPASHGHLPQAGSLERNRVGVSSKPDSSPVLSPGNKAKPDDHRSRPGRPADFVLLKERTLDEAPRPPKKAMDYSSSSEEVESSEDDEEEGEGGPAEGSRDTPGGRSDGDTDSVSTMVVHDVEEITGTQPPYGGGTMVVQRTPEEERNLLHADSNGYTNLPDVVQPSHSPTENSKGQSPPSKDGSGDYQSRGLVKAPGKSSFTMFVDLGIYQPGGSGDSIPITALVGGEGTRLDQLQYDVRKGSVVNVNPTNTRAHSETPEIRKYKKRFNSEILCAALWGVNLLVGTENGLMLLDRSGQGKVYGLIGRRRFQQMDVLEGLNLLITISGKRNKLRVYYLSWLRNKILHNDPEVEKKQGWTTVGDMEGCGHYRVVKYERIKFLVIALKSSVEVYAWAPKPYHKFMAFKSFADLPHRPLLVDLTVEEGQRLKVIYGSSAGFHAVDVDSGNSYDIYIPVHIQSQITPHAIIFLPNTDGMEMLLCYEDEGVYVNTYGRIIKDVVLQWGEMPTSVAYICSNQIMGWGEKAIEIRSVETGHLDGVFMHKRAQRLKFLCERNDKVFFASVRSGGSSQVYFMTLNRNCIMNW

[9] = molecular target: Mitogen-activated protein kinase kinase kinase 3 (Homo sapiens) (UniProt Q99759); assay: Inhibition of MAP3K3 in human NCI-H929 cells at 10 uM by mass spectroscopic analysis relative to control; assay type: cell-based
[10] = molecular target: Serine/threonine-protein kinase 10 (Homo sapiens) (UniProt O94804); assay: Inhibition of LOK in human NCI-H929 cells at 10 uM by mass spectroscopic analysis relative to control; assay type: cell-based
[11] = molecular target: Calcium/calmodulin-dependent protein kinase type II subunit gamma (Homo sapiens) (UniProt Q13555); assay: Inhibition of CAMK2G in human NCI-H929 cells at 10 uM by mass spectroscopic analysis relative to control; assay type: cell-based
[12] = molecular target: Activin receptor type-1C (Homo sapiens) (UniProt Q8NER5); assay: Inhibition of ALK7 in human NCI-H929 cells at 10 uM by mass spectroscopic analysis relative to control; assay type: cell-based
[13] = molecular target: Activin receptor type-1B (Homo sapiens) (UniProt P36896); assay: Inhibition of ALK4 in human NCI-H929 cells at 10 uM by mass spectroscopic analysis relative to control; assay type: cell-based
[14] = molecular target: Mitogen-activated protein kinase kinase kinase kinase 1 (Homo sapiens) (UniProt Q92918); assay: Inhibition of HPK1 in human NCI-H929 cells at 10 uM by mass spectroscopic analysis relative to control; assay type: cell-based
[15] = molecular target: Serine/threonine-protein kinase D2 (Homo sapiens) (UniProt Q9BZL6); assay: Inhibition of PKD2 in human NCI-H929 cells at 10 uM by mass spectroscopic analysis relative to control; assay type: cell-based
[16] = molecular target: Activin receptor type-1 (Homo sapiens) (UniProt Q04771); assay: Inhibition of ALK2 in human NCI-H929 cells at 10 uM by mass spectroscopic analysis relative to control; assay type: cell-based
Activin receptor type-1 (Homo sapiens), sequence (Q04771 whole entry, canonical isoform): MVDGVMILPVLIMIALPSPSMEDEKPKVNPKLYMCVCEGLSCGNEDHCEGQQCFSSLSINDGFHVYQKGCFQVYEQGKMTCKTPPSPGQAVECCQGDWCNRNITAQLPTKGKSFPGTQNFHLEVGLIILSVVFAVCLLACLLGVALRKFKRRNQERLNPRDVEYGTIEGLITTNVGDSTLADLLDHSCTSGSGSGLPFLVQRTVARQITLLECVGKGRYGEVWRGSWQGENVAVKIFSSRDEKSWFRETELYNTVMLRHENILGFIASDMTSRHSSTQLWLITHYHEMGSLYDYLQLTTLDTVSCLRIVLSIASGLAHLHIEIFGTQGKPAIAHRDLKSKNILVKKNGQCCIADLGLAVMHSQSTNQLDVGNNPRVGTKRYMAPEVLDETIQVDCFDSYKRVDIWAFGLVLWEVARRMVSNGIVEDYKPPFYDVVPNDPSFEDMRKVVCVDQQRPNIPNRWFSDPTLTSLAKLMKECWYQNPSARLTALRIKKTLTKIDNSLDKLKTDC

[17] = molecular target: Casein kinase I isoform gamma-2 (Homo sapiens) (UniProt P78368); assay: Inhibition of CK1g2 in human NCI-H929 cells at 10 uM by mass spectroscopic analysis relative to control; assay type: cell-based
[18] = molecular target: 1-phosphatidylinositol 3-phosphate 5-kinase (Homo sapiens) (UniProt Q9Y2I7); assay: Inhibition of PIP5K3 in human NCI-H929 cells at 10 uM by mass spectroscopic analysis relative to control; assay type: cell-based
[19] = molecular target: Mitogen-activated protein kinase kinase kinase kinase 5 (Homo sapiens) (UniProt Q9Y4K4); assay: Inhibition of KHS1 in human NCI-H929 cells at 10 uM by mass spectroscopic analysis relative to control; assay type: cell-based
[20] = molecular target: Mitogen-activated protein kinase kinase kinase 11 (Homo sapiens) (UniProt Q16584); assay: Inhibition of MLK3 in human NCI-H929 cells at 10 uM by mass spectroscopic analysis relative to control; assay type: cell-based
[21] = molecular target: Serine/threonine-protein kinase D3 (Homo sapiens) (UniProt O94806); assay: Inhibition of PKD3 in human NCI-H929 cells at 10 uM by mass spectroscopic analysis relative to control; assay type: cell-based
[22] = molecular target: NUAK family SNF1-like kinase 2 (Homo sapiens) (UniProt Q9H093); assay: Inhibition of NuaK2 in human NCI-H929 cells at 10 uM by mass spectroscopic analysis relative to control; assay type: cell-based
[23] = molecular target: eIF-2-alpha kinase GCN2 (Homo sapiens) (UniProt Q9P2K8); assay: Inhibition of GCN2 domain 2 in human NCI-H929 cells at 10 uM by mass spectroscopic analysis relative to control; assay type: cell-based
[24] = molecular target: Aurora kinase A (Homo sapiens) (UniProt O14965); assay: Inhibition of AURA in human NCI-H929 cells at 10 uM by mass spectroscopic analysis relative to control; assay type: cell-based
Aurora kinase A (Homo sapiens), sequence (O14965 whole entry): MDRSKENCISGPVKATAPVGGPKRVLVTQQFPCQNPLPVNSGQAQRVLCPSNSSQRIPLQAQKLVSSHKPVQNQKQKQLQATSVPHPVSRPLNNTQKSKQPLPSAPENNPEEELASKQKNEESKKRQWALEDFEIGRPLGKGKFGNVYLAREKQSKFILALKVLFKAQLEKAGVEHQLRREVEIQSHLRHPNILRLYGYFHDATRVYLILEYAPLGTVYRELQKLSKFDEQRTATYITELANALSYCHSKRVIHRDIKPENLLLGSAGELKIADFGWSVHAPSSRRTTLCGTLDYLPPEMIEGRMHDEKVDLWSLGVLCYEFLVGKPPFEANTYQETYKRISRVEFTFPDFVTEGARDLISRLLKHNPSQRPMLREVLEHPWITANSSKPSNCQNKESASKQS

[25] = molecular target: Serine/threonine-protein kinase SMG1 (Homo sapiens) (UniProt Q96Q15); assay: Inhibition of SMG1 in human NCI-H929 cells at 10 uM by mass spectroscopic analysis relative to control; assay type: cell-based
[26] = molecular target: Dual specificity protein kinase CLK2 (Homo sapiens) (UniProt P49760); assay: Inhibition of CLK2 in human NCI-H929 cells at 10 uM by mass spectroscopic analysis relative to control; assay type: cell-based
[27] = molecular target: Ribosomal protein S6 kinase alpha-1 (Homo sapiens) (UniProt Q15418); assay: Inhibition of RSK1 domain 1 in human NCI-H929 cells at 10 uM by mass spectroscopic analysis relative to control; assay type: cell-based
MM1.S [28] = assay: Upregulation of YAP1 protein level in human MM1.S cells at 3 to 10 uM measured after 72 hrs by Western blot analysis; assay type: functional, cell-based; conditions: dose 3-10 µM
NCI-H929 [29] = assay: Induction of apoptosis in human NCI-H929 cells assessed as induction of PARP cleavage at 1 uM measured after 24 hrs by Western blot analysis; assay type: functional, cell-based
NCI-H929 [30] = assay: Upregulation of YAP1 protein level in human NCI-H929 cells at 3 to 10 uM measured after 72 hrs by Western blot analysis; assay type: functional, cell-based; conditions: dose 3-10 µM
NCI-H929 [31] = assay: Upregulation of BAX protein level in human NCI-H929 cells at 1 uM measured after 24 hrs by Western blot analysis; assay type: functional, cell-based
MM1.S [32] = assay: Induction of apoptosis in human MM1.S cells assessed as late apoptotic cells measured after 48 hrs by annevxinV/FITC-propidium iodide staining based flow cytometry (reference value: 2.09 %); assay type: functional
[33] = molecular target: Mitogen-activated protein kinase kinase kinase 2 (Homo sapiens) (UniProt Q9Y2U5); assay: Inhibition of MAP3K2 in human NCI-H929 cells at 10 uM by mass spectroscopic analysis relative to control; assay type: cell-based

inhibition [1] [%] | inhibition [2] [%] | inhibition [3] [%] | inhibition [4] [%] | inhibition [5] [%] | inhibition [6] [%] | inhibition [7] [%] | inhibition [8] [%] | inhibition [9] [%] | inhibition [10] [%] | inhibition [12] [%] | inhibition [13] [%] | inhibition [14] [%] | inhibition [15] [%] | inhibition [16] [%] | inhibition [17] [%] | inhibition [19] [%] | inhibition [21] [%] | inhibition [22] [%] | inhibition [24] [%] | SMILES | also measured
50 | 50 | 50 | 50 | 50 | 50 | 0 | > 90 | 0 | – | – | – | – | – | – | – | – | – | – | – | CN(C1CC1)S(=O)(=O)c1ccc(-c2cnc(N)c(-c3ccc4c(c3)CCNC4=O)c2)c(F)c1 | –
– | – | 0 | – | 50 | 0 | – | 50 | – | 0 | 75 | 75 | 0 | 50 | 75 | 75 | 0 | 0 | 0 | – | COc1cc(NS(=O)(=O)C2CC2)ccc1-c1cnc(N)c(-c2ccc3c(c2)CCNC3=O)c1 | inhibition [11]: 75%; inhibition [18]: 0%; inhibition [20]: 0%; inhibition [23]: 75%
– | – | – | – | – | – | – | – | – | – | – | – | – | – | – | – | – | – | – | < 75 | Nc1ncc(-c2ccc(NS(=O)(=O)C3CC3)cc2F)cc1-c1ccc2c(c1)CCNC2=O | –
– | – | – | – | – | 50 | 0 | > 90 | 0 | 50 | – | – | 50 | 50 | – | – | – | 50 | 50 | – | Nc1ncc(-c2cccc3ncsc23)cc1-c1ccc2c(c1)CCNC2=O | inhibition [25]: 50%
– | > 90 | – | – | – | – | – | 50 | – | – | > 90 | > 90 | – | – | > 90 | 50 | 50 | – | – | – | Nc1ncc(-c2ccc(NS(=O)(=O)C3CC3)cc2OC2CCCCC2)cc1-c1ccc2c(c1)CCNC2=O | inhibition [26]: 50%; inhibition [27]: < 75%; inhibition [25]: 50%
> 90 | – | – | > 90 | – | – | 0 | > 90 | – | – | – | – | – | – | – | – | – | – | – | < 90 | Nc1ncc(-c2cccc([N+](=O)[O-])c2F)cc1-c1ccc2c(c1)CCNC2=O | inhibition [26]: 0%; Activity (MM1.S [28]): inactive; Activity (NCI-H929 [29]): Active; Activity (NCI-H929 [30]): inactive; inhibition [27]: < 75%; Activity (NCI-H929 [31]): Active; Activity (MM1.S [32]): 25.05%; inhibition [33]: < 50%
